# Data reported in patent US11180504B2 (ORCHID PHARMA LTD., priority 2016, dated 2021).
# Assays:
# [1] = tested on: methicillin-sensitive Staphylococcus aureus; assay: MIC by broth micro-dilution (CLSI), methicillin-sensitive S. aureus; assay type: cell-based; settings: Staphylococcus aureus, ATCC 29213 / MSSA, MSSA S. aureus ATCC29213; read-out: MIC
# [2] = tested on: carbapenem sensitive Escherichia coli; assay: MIC by broth micro-dilution (CLSI), carbapenem sensitive E. coli; assay type: cell-based; settings: Escherichia coli, ATCC25922, ESBL −ve E. coli ATCC25922; read-out: MIC
# [3] = tested on: carbapenemase producing K. pneumoniae; assay: MIC by broth micro-dilution (CLSI), carbapenemase producing K. pneumoniae; assay type: cell-based, Klebsiella pneumoniae; settings: Klebsiella pneumoniae, ATCCBAA1705, KPC-2 K. pneumoniae ATCC BAA-1705; read-out: MIC
# [4] = tested on: carbapenem sensitive Pseudomonas aeruginosa; assay: MIC by broth micro-dilution (CLSI), carbapenem sensitive P. aeruginosa; assay type: cell-based; settings: Pseudomonas aeruginosa, ATCC27853, Meropenem susceptible P. aeruginosa ATCC27853; read-out: MIC
SMILES,MIC [1] [µg/mL],MIC [2] [µg/mL],MIC [3] [µg/mL],MIC [4] [µg/mL]
"C[C@@H](NC(=O)Cn1nnnc1-c1cccs1)[C@H]1C(=O)N2C(C(=O)O)=C(S[C@@H]3CN[C@H](C(=O)N4CC[C@@H](N)C4)C3)[C@H](C)[C@H]12 [Example 358, (4R,5S,6R)-3-((3S,5S)-5-((R)-3-aminopyrrolidine-1-carbonyl)pyrrolidin-3-ylthio)-4-methyl-7-oxo-6-((R)-1-(2-(5-(thiophen-2-yl)-1H-tetrazol-1-yl)acetamido)ethyl)-1-azabicyclo[3.2.0]hept-2-ene-2-carboxylic acid]",1,1,32,> 128
C[C@@H](NC(=O)Cn1cnnn1)[C@H]1C(=O)N2C(C(=O)O)=C(S[C@@H]3CN[C@H](C(=O)N4CC5(CCNCC5)C4)C3)[C@H](C)[C@H]12 [Example 366],4,0.25,2,2
"C[C@@H](NC(=O)Cn1cnnn1)[C@H]1C(=O)N2C(C(=O)O)=C(S[C@@H]3CN[C@H](C(=O)N4CCC(Nc5ncccn5)CC4)C3)[C@H](C)[C@H]12 [Example 370, (4R,5S,6R)-6-((R)-1-(2-(1H-tetrazol-1-yl)acetamido)ethyl)-4-methyl-7-oxo-3-((3S,5S)-5-(4-(pyrimidin-2-ylamino)piperidine-1-carbonyl)pyrrolidin-3-ylthio)-1-azabicyclo[3.2.0]hept-2-ene-2-carboxylic acid]",8,4,64,> 128
"C[C@@H](NC(=O)Cn1nnnc1C1CC1)[C@H]1C(=O)N2C(C(=O)O)=C(S[C@@H]3CN[C@H](C(=O)N4CC[C@@H](N)C4)C3)[C@H](C)[C@H]12 [Example 372, (4R,5S,6R)-3-((3S,5S)-5-((R)-3-aminopyrrolidine-1-carbonyl)pyrrolidin-3-ylthio)-6-((R)-1-(2-(5-cyclopropyl-1H-tetrazol-1-yl)acetamido)ethyl)-4-methyl-7-oxo-1-azabicyclo[3.2.0]hept-2-ene-2-carboxylic acid]",4,0.5,8,64
C[C@@H](NC(=O)c1ccccc1-n1cnnn1)[C@H]1C(=O)N2C(C(=O)O)=C(S[C@@H]3CN[C@H](C(=O)N(C)C)C3)[C@H](C)[C@H]12 [Example 373],4,32,> 128,> 128
"C[C@@H](NC(=O)c1ccccc1-n1cnnn1)[C@H]1C(=O)N2C(C(=O)O)=C(S[C@@H]3CN[C@H](C(=O)N4CC[C@@H](N)C4)C3)[C@H](C)[C@H]12 [Example 374, (4R,5S,6R)-6-((R)-1-(2-(1H-tetrazol-1-yl)benzamido)ethyl)-3-((3S,5S)-5-((R)-3-aminopyrrolidine-1-carbonyl)pyrrolidin-3-ylthio)-4-methyl-7-oxo-1-azabicyclo[3.2.0]hept-2-ene-2-carboxylic acid]",8,32,> 128,> 128
"C[C@@H](NC(=O)Cn1cnnn1)[C@H]1C(=O)N2C(C(=O)O)=C(SC3CN(S(N)(=O)=O)C3)[C@H](C)[C@H]12 [Example 376, (4R,5S,6R)-6-((R)-1-(2-(1H-tetrazol-1-yl)acetamido)ethyl)-4-methyl-7-oxo-3-(1-sulfamoylazetidin-3-ylthio)-1-azabicyclo[3.2.0]hept-2-ene-2-carboxylic acid]",8,0.25,16,> 128

# Other lines, results leading:
MIC [1] [µg/mL],MIC [2] [µg/mL],MIC [3] [µg/mL],MIC [4] [µg/mL],SMILES
8,0.5,2,16,"C[C@@H](NC(=O)Cn1cnnn1)[C@H]1C(=O)N2C(C(=O)O)=C(S[C@@H]3CN[C@H](C(=O)N4CCN(C)CC4)C3)[C@H](C)[C@H]12 [Example 359, (4R,5S,6R)-6-((R)-1-(2-(1H-tetrazol-1-yl)acetamido)ethyl)-4-methyl-3-((3S,5S)-5-(4-methylpiperazine-1-carbonyl)pyrrolidin-3-ylthio)-7-oxo-1-azabicyclo[3.2.0]hept-2-ene-2-carboxylic acid]"
8,0.5,2,1,"C[C@@H](NC(=O)Cn1cnnn1)[C@H]1C(=O)N2C(C(=O)O)=C(S[C@@H]3CN[C@H](C(=O)N4CC[N+](C)(C)CC4)C3)[C@H](C)[C@H]12 [Example 360, 4-((2S,4S)-((4R,5S,6R)-6-((R)-1-(2-(1H-tetrazol-1-yl)acetamido)ethyl)-2-carboxy-4-methyl-7-oxo-1-azabicyclo[3.2.0]hept-2-en-3-ylthio)pyrrolidine-2-carbonyl)-1,1-dimethylpiperazin-1-ium iodide]"
4,0.25,2,1,"C[C@@H](NC(=O)Cn1cnnn1)[C@H]1C(=O)N2C(C(=O)O)=C(S[C@@H]3CN[C@H](C(=O)N4CC[N+](C)(CC(N)=O)CC4)C3)[C@H](C)[C@H]12.[I-] [Example 363, 4-((2S,4S)-4-((4R,5S,6R)-6-((R)-1-(2-(1H-tetrazol-1-yl)acetamido)ethyl)-2-carboxy-4-methyl-7-oxo-1-azabicyclo[3.2.0]hept-2-en-3-ylthio)pyrrolidine-2-carbonyl)-1-(2-amino-2-oxoethyl)-1-methylpiperazin-1-ium iodide]"
4,0.25,2,1,"C[C@@H](NC(=O)Cn1cnnn1)[C@H]1C(=O)N2C(C(=O)O)=C(S[C@@H]3CN[C@H](C(=O)N4CCN(CCN)CC4)C3)[C@H](C)[C@H]12 [Example 364, (4R,5S,6R)-6-((R)-1-(2-(1H-tetrazol-1-yl)acetamido)ethyl)-3-((3S,5S)-5-(4-(2-aminoethyl)piperazine-1-carbonyl)pyrrolidin-3-ylthio)-4-methyl-7-oxo-1-azabicyclo[3.2.0]hept-2-ene-2-carboxylic acid]"
4,0.25,2,2,"C[C@@H](NC(=O)Cn1cnnn1)[C@H]1C(=O)N2C(C(=O)O)=C(S[C@@H]3CN[C@H](C(=O)N4CCC5(CCN5)CC4)C3)[C@H](C)[C@H]12 [Example 365, (4R,5S,6R)-3-((3S,5S)-5-(1,7-diazaspiro[3.5]nonane-7-carbonyl)pyrrolidin-3-ylthio)-6-((R)-1-(2-(1H-tetrazol-1-yl)acetamido)ethyl)-4-methyl-7-oxo-1-azabicyclo[3.2.0]hept-2-ene-2-carboxylic acid]"
2,0.25,2,1,"C[C@@H](NC(=O)Cn1cnnn1)[C@H]1C(=O)N2C(C(=O)O)=C(S[C@@H]3CN[C@H](C(=O)N4CCN(C(=N)N)CC4)C3)[C@H](C)[C@H]12 [Example 367, (4R,5S,6R)-6-((R)-1-(2-(1H-tetrazol-1-yl)acetamido)ethyl)-3-((3S,5S)-5-(4-carbamimidoylpiperazine-1-carbonyl)pyrrolidin-3-ylthio)-4-methyl-7-oxo-1-azabicyclo[3.2.0]hept-2-ene-2-carboxylic acid]"
2,0.25,2,1,"C[C@@H](NC(=O)Cn1cnnn1)[C@H]1C(=O)N2C(C(=O)O)=C(S[C@@H]3CN[C@H](C(=O)N4CCC5(CC4)CNC5)C3)[C@H](C)[C@H]12 [Example 368, (4R,5S,6R)-6-((R)-1-(2-(1H-tetrazol-1-yl)acetamido)ethyl)-3-((3S,5S)-5-(2,7-diazaspiro[3.5]nonane-7-carbonyl)pyrrolidin-3-ylthio)-4-methyl-7-oxo-1-azabicyclo[3.2.0]hept-2-ene-2-carboxylic acid]"
2,0.25,8,16,"C[C@@H](NC(=O)CCn1cnnn1)[C@H]1C(=O)N2C(C(=O)O)=C(S[C@@H]3CN[C@H](C(=O)N4CC[C@@H](N)C4)C3)[C@H](C)[C@H]12 [Example 369, (4R,5S,6R)-6-((R)-1-(3-(1H-tetrazol-1-yl)propanamido)ethyl)-3-((3S,5S)-5-((R)-3-aminopyrrolidine-1-carbonyl)pyrrolidin-3-ylthio)-4-methy-7-oxo-1-azabicyclo[3.2.0]hept-2-ene-2-carboxylic acid]"
16,1,4,64,"C[C@@H](NC(=O)Cn1cnnn1)[C@H]1C(=O)N2C(C(=O)O)=C(S[C@@H]3CN[C@H](C(=O)N4CCC(N)(CC#N)CC4)C3)[C@H](C)[C@H]12 [Example 371, (4R,5S,6R)-6-((R)-1-(2-(1H-tetrazol-1-yl)acetamido)ethyl)-3-((3S,5S)-5-(4-amino-4-(cyanomethyl)piperidine-1-carbonyl)pyrrolidin-3-ylthio)-4-methyl-7-oxo-1-azabicyclo[3.2.0]hept-2-ene-2-carboxylic acid]"
16,2,8,4,"C[C@@H](NC(=O)Cn1cnnn1)[C@H]1C(=O)N2C(C(=O)O)=C(S[C@@H]3CN[C@H](C(=O)N4CC[N+](C)(CCN)CC4)C3)[C@H](C)[C@H]12.[I-] [Example 375, 4-((2S,4S)-4-((4R,5S,6R)-6-((R)-1-(2-(1H-tetrazol-1-yl)acetamido)ethyl)-2-carboxy-4-methyl-7-oxo-1-azabicyclo[3.2.0]hept-2-en-3-ylthio)pyrrolidine-2-carbonyl)-1-(2-aminoethyl)-1-methylpiperazin-1-ium iodide]"
